Assays:
Experiment in all cases: KinaseProfiler Assay
Format in all cases: biochemical
BTK = BTK (Homo sapiens, UniProt Q06187); conditions: read-out: BTK, % of Control
CDK5/p25 = CDK5/p25 (Homo sapiens, UniProt Q00535); conditions: read-out: CDK5/p25, % of Control
CDK6/cyclinD3 = CDK6/cyclinD3 (Homo sapiens, UniProt Q00534); conditions: read-out: CDK6/cyclinD3, % of Control
CHK2 = CHK2 (Homo sapiens, UniProt O96017); conditions: read-out: CHK2, % of Control
cSRC = cSRC (Homo sapiens, UniProt P12931); conditions: read-out: cSRC, % of Control
DAPK1 = DAPK1 (Homo sapiens, UniProt P53355); conditions: read-out: DAPK1, % of Control
EphB1 = molecular target: T1, EphB1 (Homo sapiens, UniProt P54762); conditions: read-out: EphB1, % of Control
T1 sequence (P54762 18-984): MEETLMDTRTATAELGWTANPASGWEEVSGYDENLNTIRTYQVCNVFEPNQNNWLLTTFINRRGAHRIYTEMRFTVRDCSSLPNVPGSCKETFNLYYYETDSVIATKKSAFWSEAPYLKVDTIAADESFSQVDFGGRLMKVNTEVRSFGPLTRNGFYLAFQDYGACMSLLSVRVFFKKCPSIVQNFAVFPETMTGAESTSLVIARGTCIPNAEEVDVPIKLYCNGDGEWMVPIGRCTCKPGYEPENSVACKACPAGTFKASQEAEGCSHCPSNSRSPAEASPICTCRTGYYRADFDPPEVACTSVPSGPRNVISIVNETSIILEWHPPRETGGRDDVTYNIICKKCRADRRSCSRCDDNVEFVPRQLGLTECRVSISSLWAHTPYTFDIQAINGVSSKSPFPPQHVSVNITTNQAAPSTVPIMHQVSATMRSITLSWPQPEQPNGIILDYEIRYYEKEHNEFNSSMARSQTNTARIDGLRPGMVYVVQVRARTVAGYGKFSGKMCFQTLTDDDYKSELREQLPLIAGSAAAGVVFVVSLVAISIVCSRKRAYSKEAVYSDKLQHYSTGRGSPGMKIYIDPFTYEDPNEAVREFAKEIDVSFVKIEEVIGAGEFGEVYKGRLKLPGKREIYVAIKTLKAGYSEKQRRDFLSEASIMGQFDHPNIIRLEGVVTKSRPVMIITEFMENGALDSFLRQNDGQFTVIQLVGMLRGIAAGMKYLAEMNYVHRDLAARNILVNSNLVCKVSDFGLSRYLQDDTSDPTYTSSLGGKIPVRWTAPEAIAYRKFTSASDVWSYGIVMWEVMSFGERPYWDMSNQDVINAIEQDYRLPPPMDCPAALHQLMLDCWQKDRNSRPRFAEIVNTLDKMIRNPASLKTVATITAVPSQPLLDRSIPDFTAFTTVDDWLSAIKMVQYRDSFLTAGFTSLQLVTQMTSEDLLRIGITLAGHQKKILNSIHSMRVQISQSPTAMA

Fyn = Fyn (Homo sapiens, UniProt P06241); conditions: read-out: Fyn, % of Control
HIPK2 = HIPK2 (Homo sapiens, UniProt Q9H2X6); conditions: read-out: HIPK2, % of Control
PI3K gamma = PI3K gamma (Homo sapiens, UniProt P48736); conditions: 50 μg/ml
Pim-2 = Pim-2 (Homo sapiens, UniProt Q9P1W9); conditions: read-out: Pim-2, % of Control
PKA = PKA (Homo sapiens, UniProt P17612); conditions: read-out: PKA, % of Control
PRAK = PRAK (Homo sapiens, UniProt Q8IW41); conditions: read-out: PRAK, % of Control
Ron = Ron (Homo sapiens, UniProt Q04912); conditions: read-out: Ron, % of Control
Tie2 = Tie2 (Homo sapiens, UniProt Q02763); conditions: 50 ug/ml; read-out: Tie2, % of Control

Sequence of CDK6/cyclinD3 (Q00534 whole entry): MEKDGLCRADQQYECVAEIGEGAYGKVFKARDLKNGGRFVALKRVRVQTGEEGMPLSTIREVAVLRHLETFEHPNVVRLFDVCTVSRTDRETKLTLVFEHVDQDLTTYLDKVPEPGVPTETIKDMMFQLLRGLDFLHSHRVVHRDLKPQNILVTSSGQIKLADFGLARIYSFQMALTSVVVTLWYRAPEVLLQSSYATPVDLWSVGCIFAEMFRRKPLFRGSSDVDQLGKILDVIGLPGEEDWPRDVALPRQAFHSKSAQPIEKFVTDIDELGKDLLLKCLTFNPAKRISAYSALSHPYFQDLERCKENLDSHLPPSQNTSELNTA
Sequence of CDK6/cyclinD3 (P30281 whole entry partner): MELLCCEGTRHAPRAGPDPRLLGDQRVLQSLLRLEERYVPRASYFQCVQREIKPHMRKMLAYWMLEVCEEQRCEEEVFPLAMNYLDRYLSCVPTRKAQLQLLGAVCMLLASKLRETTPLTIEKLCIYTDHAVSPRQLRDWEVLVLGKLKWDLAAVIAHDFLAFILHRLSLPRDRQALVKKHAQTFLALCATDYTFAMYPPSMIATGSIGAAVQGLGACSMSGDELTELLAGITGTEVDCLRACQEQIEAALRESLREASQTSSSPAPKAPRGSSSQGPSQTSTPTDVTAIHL
Sequence of Pim-2 (Q9P1W9 whole entry): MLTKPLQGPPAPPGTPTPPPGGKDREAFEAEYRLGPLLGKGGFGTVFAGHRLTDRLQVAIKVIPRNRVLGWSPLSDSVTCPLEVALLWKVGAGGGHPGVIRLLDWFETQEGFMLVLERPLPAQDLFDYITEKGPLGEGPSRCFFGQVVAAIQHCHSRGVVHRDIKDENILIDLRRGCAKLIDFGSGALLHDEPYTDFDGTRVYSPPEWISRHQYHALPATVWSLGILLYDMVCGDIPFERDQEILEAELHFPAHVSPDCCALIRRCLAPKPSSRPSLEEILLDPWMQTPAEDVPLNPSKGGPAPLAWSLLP
Sequence of BTK (Q06187 whole entry): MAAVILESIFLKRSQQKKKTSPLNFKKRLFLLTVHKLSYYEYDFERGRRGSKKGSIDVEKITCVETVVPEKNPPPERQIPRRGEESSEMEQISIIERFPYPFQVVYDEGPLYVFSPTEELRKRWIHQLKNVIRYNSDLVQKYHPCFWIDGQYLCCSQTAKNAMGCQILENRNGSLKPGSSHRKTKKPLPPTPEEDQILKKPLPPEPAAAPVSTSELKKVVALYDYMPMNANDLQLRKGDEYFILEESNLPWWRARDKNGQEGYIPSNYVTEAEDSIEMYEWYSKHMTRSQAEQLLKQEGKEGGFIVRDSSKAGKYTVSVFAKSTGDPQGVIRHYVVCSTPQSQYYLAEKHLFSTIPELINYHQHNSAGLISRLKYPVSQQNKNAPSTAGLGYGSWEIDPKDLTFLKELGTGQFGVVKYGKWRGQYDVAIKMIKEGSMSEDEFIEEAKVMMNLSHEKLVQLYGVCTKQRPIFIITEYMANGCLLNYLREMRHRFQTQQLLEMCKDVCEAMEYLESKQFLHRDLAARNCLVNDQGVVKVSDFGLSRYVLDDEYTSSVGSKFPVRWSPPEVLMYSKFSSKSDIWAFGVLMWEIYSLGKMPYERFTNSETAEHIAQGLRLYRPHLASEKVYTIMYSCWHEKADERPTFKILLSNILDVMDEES
Sequence of Ron (Q04912 25-1400): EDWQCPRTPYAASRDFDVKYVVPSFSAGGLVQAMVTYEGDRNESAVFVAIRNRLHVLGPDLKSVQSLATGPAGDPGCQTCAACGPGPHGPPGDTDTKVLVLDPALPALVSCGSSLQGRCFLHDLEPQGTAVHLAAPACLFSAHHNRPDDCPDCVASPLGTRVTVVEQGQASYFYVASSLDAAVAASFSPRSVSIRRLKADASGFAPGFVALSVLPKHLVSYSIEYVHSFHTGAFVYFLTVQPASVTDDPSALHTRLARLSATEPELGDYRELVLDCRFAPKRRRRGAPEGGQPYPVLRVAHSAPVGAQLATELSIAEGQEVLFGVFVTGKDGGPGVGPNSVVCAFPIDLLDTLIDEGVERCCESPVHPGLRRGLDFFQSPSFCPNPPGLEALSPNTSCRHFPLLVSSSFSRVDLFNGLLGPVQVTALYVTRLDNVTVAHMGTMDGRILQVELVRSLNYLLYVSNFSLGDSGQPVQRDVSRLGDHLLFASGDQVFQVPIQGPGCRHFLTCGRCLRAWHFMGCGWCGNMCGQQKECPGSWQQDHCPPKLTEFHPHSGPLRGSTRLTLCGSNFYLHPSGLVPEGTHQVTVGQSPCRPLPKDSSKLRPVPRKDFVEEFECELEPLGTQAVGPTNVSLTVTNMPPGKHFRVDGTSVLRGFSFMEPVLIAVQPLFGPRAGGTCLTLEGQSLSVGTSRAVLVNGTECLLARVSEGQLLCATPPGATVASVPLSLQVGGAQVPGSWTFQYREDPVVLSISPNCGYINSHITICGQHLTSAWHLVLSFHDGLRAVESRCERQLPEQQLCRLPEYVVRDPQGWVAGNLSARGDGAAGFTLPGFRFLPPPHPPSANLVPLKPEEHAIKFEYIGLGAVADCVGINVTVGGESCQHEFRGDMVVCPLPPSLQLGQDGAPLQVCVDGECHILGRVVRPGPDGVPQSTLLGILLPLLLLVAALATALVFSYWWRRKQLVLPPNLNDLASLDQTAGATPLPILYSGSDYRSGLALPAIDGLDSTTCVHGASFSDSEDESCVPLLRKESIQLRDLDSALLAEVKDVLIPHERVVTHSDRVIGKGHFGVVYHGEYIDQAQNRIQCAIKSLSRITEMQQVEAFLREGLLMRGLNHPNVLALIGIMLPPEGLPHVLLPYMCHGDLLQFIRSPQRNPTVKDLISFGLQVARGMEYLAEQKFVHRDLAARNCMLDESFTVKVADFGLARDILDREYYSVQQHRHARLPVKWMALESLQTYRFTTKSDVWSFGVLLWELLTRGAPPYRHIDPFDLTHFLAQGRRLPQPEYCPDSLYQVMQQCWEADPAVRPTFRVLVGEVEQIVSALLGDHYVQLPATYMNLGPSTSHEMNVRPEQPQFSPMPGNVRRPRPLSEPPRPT
Sequence of CHK2 (O96017 whole entry): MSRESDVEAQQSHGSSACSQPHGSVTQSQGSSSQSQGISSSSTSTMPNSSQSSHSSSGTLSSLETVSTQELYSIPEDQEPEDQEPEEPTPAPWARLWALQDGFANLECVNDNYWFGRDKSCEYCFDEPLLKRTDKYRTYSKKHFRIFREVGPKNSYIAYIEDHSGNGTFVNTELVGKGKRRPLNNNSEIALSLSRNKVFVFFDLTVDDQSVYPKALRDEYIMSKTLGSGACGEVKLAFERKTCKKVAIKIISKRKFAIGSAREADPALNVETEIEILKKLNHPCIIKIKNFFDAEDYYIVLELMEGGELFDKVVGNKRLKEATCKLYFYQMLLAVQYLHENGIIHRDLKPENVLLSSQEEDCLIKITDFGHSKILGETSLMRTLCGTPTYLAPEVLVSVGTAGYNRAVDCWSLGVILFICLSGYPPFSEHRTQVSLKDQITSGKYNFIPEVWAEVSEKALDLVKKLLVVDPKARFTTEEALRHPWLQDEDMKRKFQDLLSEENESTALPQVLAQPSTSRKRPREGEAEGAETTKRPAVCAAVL
Sequence of Fyn (P06241 whole entry): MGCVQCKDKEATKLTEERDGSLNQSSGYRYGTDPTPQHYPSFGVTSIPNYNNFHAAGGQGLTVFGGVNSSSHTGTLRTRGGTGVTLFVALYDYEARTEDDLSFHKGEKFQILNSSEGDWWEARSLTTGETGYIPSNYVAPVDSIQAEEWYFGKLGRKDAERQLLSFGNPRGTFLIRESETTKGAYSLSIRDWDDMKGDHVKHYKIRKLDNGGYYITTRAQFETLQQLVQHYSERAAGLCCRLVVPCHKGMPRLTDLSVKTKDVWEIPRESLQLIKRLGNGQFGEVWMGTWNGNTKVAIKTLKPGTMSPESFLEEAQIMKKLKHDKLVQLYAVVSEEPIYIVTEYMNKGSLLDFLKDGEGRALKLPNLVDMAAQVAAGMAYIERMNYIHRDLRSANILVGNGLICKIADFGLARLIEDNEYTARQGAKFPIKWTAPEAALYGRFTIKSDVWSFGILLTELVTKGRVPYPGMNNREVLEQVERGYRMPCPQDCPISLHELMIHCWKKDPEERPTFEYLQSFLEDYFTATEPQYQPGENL
Sequence of cSRC (P12931 whole entry): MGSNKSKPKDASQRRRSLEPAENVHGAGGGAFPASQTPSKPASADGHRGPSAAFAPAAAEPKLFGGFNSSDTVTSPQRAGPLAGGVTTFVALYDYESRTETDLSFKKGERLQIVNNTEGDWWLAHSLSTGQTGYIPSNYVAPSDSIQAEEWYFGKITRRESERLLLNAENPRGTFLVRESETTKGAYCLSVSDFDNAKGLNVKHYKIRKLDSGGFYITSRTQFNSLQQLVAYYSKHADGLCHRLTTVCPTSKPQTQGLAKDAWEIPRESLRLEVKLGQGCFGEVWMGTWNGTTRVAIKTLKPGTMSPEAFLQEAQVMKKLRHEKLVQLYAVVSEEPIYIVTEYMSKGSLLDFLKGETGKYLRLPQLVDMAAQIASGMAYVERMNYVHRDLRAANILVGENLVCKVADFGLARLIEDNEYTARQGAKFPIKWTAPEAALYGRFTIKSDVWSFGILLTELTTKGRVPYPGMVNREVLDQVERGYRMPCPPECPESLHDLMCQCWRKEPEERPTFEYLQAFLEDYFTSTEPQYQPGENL

COc1cc(O)c(CC=C(C)C)c(O)c1C(=O)/C=C/c1ccc(O)cc1 [Xanthohumol, xanthohumol]
remaining activity at 1 µg/mL (BTK; 1 ug/ml): 109% | remaining activity at 5 µg/mL (BTK; 5 ug/ml): 57% | remaining activity at 50 µg/mL (BTK; 50 ug/ml): 20% | remaining activity at 25 µg/mL (CDK5/p25; 25 ug/ml): 24% | remaining activity at 50 µg/mL (CDK5/p25; 50 ug/ml): 87% | remaining activity at 1 µg/mL (CDK6/cyclinD3; 1 ug/ml): 110% | remaining activity at 5 µg/mL (CDK6/cyclinD3; 5 ug/ml): 79% | remaining activity at 25 µg/mL (CDK6/cyclinD3; 25 ug/ml): 23% | remaining activity at 50 µg/mL (CDK6/cyclinD3; 50 ug/ml): 7% | remaining activity at 1 µg/mL (CHK2; 1 ug/ml): 25% | remaining activity at 5 µg/mL (CHK2; 5 ug/ml): 5% | remaining activity at 25 µg/mL (CHK2; 25 ug/ml): 3% | remaining activity at 1 µg/mL (cSRC; 1 ug/ml): 92% | remaining activity at 5 µg/mL (cSRC; 5 ug/ml): 50% | remaining activity at 25 µg/mL (cSRC; 25 ug/ml): 27% | remaining activity at 50 µg/mL (cSRC; 50 ug/ml): 21% | remaining activity at 5 µg/mL (DAPK1; 5 ug/ml): 85% | remaining activity at 50 µg/mL (DAPK1; 50 ug/ml): 20% | remaining activity at 1 µg/mL (EphB1; 1 ug/ml): 92% | remaining activity at 25 µg/mL (EphB1; 25 ug/ml): 175% | remaining activity at 50 µg/mL (EphB1; 50 ug/ml): 161% | remaining activity at 1 µg/mL (Fyn; 1 ug/ml): 104% | remaining activity at 5 µg/mL (Fyn; 5 ug/ml): 66% | remaining activity at 25 µg/mL (Fyn; 25 ug/ml): 42% | remaining activity at 50 µg/mL (Fyn; 50 ug/ml): 18% | remaining activity at 1 µg/mL (HIPK2; 1 ug/ml): 110% | remaining activity at 5 µg/mL (HIPK2; 5 ug/ml): 98% | inhibition of PI3K-γ activity (PI3K gamma): more inhibitory to PI3K-γ than to PI3K-β or PI3K-δ | remaining activity at 1 µg/mL (Pim-2; 1 ug/ml): 104% | remaining activity at 5 µg/mL (Pim-2; 5 ug/ml): 48% | remaining activity at 25 µg/mL (Pim-2; 25 ug/ml): 14% | remaining activity at 50 µg/mL (Pim-2; 50 ug/ml): 6% | remaining activity at 1 µg/mL (PKA; 1 ug/ml): 105% | remaining activity at 5 µg/mL (PKA; 5 ug/ml): 109% | remaining activity at 25 µg/mL (PKA; 25 ug/ml): 98% | remaining activity at 50 µg/mL (PKA; 50 ug/ml): 21% | remaining activity at 1 µg/mL (PRAK; 1 ug/ml): 101% | remaining activity at 5 µg/mL (PRAK; 5 ug/ml): 53% | remaining activity at 1 µg/mL (Ron; 1 ug/ml): 135% | remaining activity at 5 µg/mL (Ron; 5 ug/ml): 127% | remaining activity at 25 µg/mL (Ron; 25 ug/ml): 60% | remaining activity at 50 µg/mL (Ron; 50 ug/ml): 69% | remaining activity at 50 µg/mL (Tie2): 35%

Reference: patent publication US20080051466A1, “Isoalpha acid based protein kinase modulation cancer treatment” (Metaproteomics, LLC, priority 2006, published 2008)
